Assays:
[1] = tested on: NO production on RAW264.7 macrophages; experiment: Inhibition of NO production in LPS-stimulated RAW264.7 cells (Griess); format: cell-based, murine; conditions: highest concentration 50 µM
Method: Cell RAW264.7 (ATCC, Manassas, VA, USA) was cultured for 48 h in DMEM (Dulbecco's Modified Eagle Medium) medium at 37 °C, 5% CO2, and 10% for fetal bovine serum (FBS). Then, the cell fluid was transferred to 96 wells with a density of 2.5 × 10^5 cells/well. Cells were stimulated with 2 μL lipopolysaccharide (LPS 0.1 mg/mL) for 24 h and supplemented with different concentrations of drugs/reagents. Cardamonin is used as a control (+) and DMSO as a control (-). The suspension of the cell was incubated with Griess reagent, NaNO2 at different concentrations to build the calibration curve. Measure the reaction response at λ = 570 nm. The inhibition rate of NO (%) production is determined by the formula: %UC = ([XTB]sample - [[…]) × 100 In which [XTB] is the average NO concentration calculated based on the standard NaNO2. […] Formazan crystalline metabolites are dissolved in dimethyl sulfoxide (DMSO, Sigma-Aldrich, Saint Louis, MO, USA) and measured optical density at λ = 540/720 nm on Infinite F50 device (Tecan, Männedorf, Switzerland).

Recombinant PDE4D = target: T1, Recombinant PDE4D (Homo sapiens, UniProt Q08499); experiment: In vitro PDE4D enzymatic assay (cAMP dynamic 2 kit); format: biochemical; conditions: average of three determinations ± SEM
T1 construct: purchased Sigma Aldrich Co Ltd
Method: (§1) Recombinant PDE4B/D was from Sigma Aldrich Co Ltd. A PDE4B/D inhibitors assay was performed using a cAMP dynamic 2 kit. Serial dilutions of isolated compounds with DMSO (100-fold of final concentration) were prepared. Compound solutions were diluted 20-fold with cAMP assay buffer (50 mM Tris, 6 mM MgCl2, pH 7.5). Enzyme solution ([…] of 30 ng/mL or cAMP assay buffer for the control) and […] of isolated compounds (5-fold concentration of final concentration) were added to each well of the 96-well micro assay plate and pre-incubated at room temperature for 10 min. The enzymatic reactions were started by adding […] of cAMP solution (150 nM in cAMP assay buffer) or cAMP assay buffer and incubated at 37 °C for 30 min. The enzymatic reaction was terminated by placing the assay plate on ice. The concentration of cAMP was quantified by measurement of fluorescence intensity using Spectrophotometer Model-SP-2558 (Acton Research, Acton, MA, USA).

Recombinant PDE4B = target: T2, Recombinant PDE4B (Homo sapiens, UniProt Q07343); experiment: In vitro PDE4B enzymatic assay (cAMP dynamic 2 kit); format: biochemical; conditions: average of three determinations ± SEM
T2 construct: purchased Sigma Aldrich Co Ltd
Method: as §1

[2] = tested on: NO production in RAW264.7 cells induced by LPS; design: method as in PMID 31470215; conditions: read-out: IC50 of inhibition of NO production; cited from earlier work
NO production = tested on: NO production; design: method as in PMID 22902267; conditions: read-out: IC50 of inhibition of NO production; cited from earlier work

T1 sequence (Q08499 whole entry, species assumed): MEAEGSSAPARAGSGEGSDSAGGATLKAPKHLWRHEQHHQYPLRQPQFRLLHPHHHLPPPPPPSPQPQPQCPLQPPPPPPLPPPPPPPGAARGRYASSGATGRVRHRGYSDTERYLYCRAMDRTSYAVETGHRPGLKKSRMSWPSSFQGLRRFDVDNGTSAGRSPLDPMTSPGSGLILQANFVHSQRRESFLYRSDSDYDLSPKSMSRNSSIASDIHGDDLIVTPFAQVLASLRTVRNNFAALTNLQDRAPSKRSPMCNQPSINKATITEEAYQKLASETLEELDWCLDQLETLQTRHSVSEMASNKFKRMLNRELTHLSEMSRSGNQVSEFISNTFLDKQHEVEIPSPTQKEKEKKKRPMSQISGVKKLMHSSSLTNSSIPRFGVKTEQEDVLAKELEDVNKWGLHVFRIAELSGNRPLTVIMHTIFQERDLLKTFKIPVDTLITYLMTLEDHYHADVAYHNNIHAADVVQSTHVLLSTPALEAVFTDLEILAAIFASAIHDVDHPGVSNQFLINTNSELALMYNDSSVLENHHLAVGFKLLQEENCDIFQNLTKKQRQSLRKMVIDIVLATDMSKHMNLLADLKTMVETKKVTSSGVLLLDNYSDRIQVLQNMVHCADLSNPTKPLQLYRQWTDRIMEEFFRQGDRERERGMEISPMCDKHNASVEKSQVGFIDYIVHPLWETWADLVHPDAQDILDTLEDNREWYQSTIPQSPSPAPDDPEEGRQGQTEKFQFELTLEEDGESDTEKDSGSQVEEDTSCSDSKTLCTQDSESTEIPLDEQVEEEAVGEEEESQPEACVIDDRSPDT
T2 sequence (Q07343 whole entry, species assumed): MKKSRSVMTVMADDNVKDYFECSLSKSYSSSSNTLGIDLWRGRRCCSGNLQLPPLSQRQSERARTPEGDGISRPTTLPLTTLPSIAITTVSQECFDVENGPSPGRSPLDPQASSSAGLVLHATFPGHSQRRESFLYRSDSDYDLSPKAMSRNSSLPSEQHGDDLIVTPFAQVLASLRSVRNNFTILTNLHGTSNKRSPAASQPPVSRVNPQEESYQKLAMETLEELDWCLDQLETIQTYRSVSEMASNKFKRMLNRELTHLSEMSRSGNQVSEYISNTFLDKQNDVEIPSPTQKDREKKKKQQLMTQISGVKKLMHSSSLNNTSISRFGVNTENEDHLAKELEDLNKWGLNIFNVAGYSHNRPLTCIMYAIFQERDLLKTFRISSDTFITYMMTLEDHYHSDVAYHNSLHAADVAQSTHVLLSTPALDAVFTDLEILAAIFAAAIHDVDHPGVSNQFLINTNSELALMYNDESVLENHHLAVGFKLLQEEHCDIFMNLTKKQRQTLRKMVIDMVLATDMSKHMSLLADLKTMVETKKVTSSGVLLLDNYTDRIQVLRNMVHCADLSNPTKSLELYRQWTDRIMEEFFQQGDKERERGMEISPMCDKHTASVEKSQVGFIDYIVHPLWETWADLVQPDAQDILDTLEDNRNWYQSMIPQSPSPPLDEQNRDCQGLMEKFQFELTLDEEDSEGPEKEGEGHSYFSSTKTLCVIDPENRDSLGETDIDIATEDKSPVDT

**Q.** With “5,7,4′-trihydroxyisoflavone 7-O-β-D-apiofuranosyl-(1→6)-β-D-glucopyranoside [D50]” as the compound, how does the IC50 [1] read?
**A.** 5.4 ± 0.9 µM

**Q.** And the IC50 (Recombinant PDE4D; read-out: IC50 of inhibition of PDE4D)?
**A.** 11.7 ± 1.3 µM

**Q.** And the IC50 (Recombinant PDE4B; read-out: IC50 of inhibition of PDE4B)?
**A.** 6.56 ± 0.7 µM

**Q.** Which results are given for C[C@H]1[C@H](C)CC[C@]2(C(=O)O)CC[C@]3(C)C(=CC[C@@H]4[C@@]5(C)CC[C@H](OC(=O)/C=C/c6ccc(O)cc6)C(C)(C)[C@@H]5CC[C@]43C)[C@H]12 (relative stereo) [D15, trans-3-O-p-hydroxycinnamoyl ursolic acid]?
**A.** IC50 of inhibition of PDE4D (Recombinant PDE4D): did not show activity; IC50 of inhibition of PDE4B (Recombinant PDE4B): did not show activity

**Q.** Which IC50 [2] does the source give for O=C(/C=C/c1ccc(O)cc1)c1ccc(O)cc1O [D4, Isoliquiritigenin] here?
**A.** 31.2 µM

**Q.** Which IC50 [2] does the source give for COc1ccc([C@H]2COc3cc(O)ccc3C2)c(O)c1 [D9, (3S)-Vestitol] here?
**A.** 16 µM

**Q.** For Oc1ccc([C@H]2CCc3ccc(O)cc3O2)cc1 [D10, Tupichinol C], which IC50 [2] is on record?
**A.** 38.4 µM

**Q.** For COc1cc(OC)c(-c2coc3c4c(c(OC)cc3c2=O)OC(C)(C)C=C4)cc1OC [D30, Millesianin C], which IC50 (NO production) is on record?
**A.** 1370 nM

— PMC10650832, “Natural Phosphodiesterase-4 Inhibitors with Potential Anti-Inflammatory Activities from Millettia dielsiana” (Molecules, 2023)
